The AptaBench aptamer set (doi:10.1093/nar/gkaf219)

Tests used:
Conditions in all cases: 10 mM Tris-HCl, pH 7.4
[1] = tested on: DNA aptamer or structured DNA GGGACGACATGGGATGGAGCTATGCGAGCATGTGGTGTGTCGTCCC
[2] = tested on: DNA aptamer or structured DNA TTCAAATCTAGCGCAGGTAGGGGTGTAGGCGTGGGGGTAAGTCTAGATTTGAA
[3] = tested on: DNA aptamer or structured DNA GGGACGACCAGAATGGAAGCATTGGTTGCCGCAGGGTGCCGCAGTCGTCCC
[4] = tested on: DNA aptamer or structured DNA GGGACGACGGATTGCGCTTGCTAACGCCGTGTAGAGTCGTCGTCCC
[5] = tested on: DNA aptamer or structured DNA GGGACGACGCCGGCTTTTAGGGGGGGTGTGGGTGGCGAGTCGTCCC
[6] = tested on: DNA aptamer or structured DNA CTTACGACAGGTTCTGAGGAATCAACGTCGGTGTAGTTGTCGTAAG
[7] = tested on: DNA aptamer or structured DNA GGGACGACATGGGATACCAGAGTCCTGGGATGTGGTGTGTCGTCCC
[8] = tested on: DNA aptamer or structured DNA GGGACGACGAGTGCGGGGAGTGTGTTTCTGTGGGGGTCGTCGTCCC
[9] = tested on: DNA aptamer or structured DNA CTTACGACTAGGTGGGGGTCGGCGCCGTAGGTGGGGTAGTCGTAAG
[10] = tested on: DNA aptamer or structured DNA GGGACGACGCGTAGGTTTCCTAGCTGTGCGTCGTTCAAGTCGTCCC
[11] = tested on: DNA aptamer or structured DNA GGGACGACTAGCCGCGCGTTGTCCGACCCTTGGAAGTAGTCGTCCC
[12] = tested on: DNA aptamer or structured DNA CTTACGACCGACTTTTGGGTGTTCTGGGTGGGATGTGGGTCGTAAG
[13] = tested on: DNA aptamer or structured DNA GGGACGACTAGTGCCTTCGTGTTGTTCGGGAATCCGGTTCTGTCGTCCC
[14] = tested on: DNA aptamer or structured DNA CTTACGACCGGTGGGGAGGCCGGAGTTGGGAACGGGGGGTCGTAAG
[15] = tested on: DNA aptamer or structured DNA GGGACGACAGGGATTCGGTTCTCGATAAGTAGTGCCTCGTACGTCGTCCC
[16] = tested on: DNA aptamer or structured DNA GGGACGACGGTACCCGCCGGTGCAGGATCTGGGGTGGTGTCGTCCC
[17] = tested on: DNA aptamer or structured DNA GGGACGACAGGGATTCGGTCTTGGAACAAAGGGGCCTCGTCTGTCGTCCC
[18] = tested on: DNA aptamer or structured DNA GGGACGACTAGTGCCTTCGCGTTGTTCGGGAATCCGGTTCCGTCGTCCC
[19] = tested on: DNA aptamer or structured DNA GGGACGACGCGTAGGTCTCCTAGCTGTGCGTCGTTCAAGTCGTCCC
[20] = tested on: DNA aptamer or structured DNA GGGACGACCGTTGGCGAGTGTGTCCGGGGACTACAGGGGTCGTCCC
[21] = tested on: DNA aptamer or structured DNA GGGACGACGCGTAGGTTCCCTAGCTGTGCGTCGTTCAAGTCGTCCC
[22] = tested on: DNA aptamer or structured DNA GGGACGACAAAAATGGAAGCATTGGTTGTTGGTGCTTTGTCGTCCC
[23] = tested on: DNA aptamer or structured DNA GGGACGACGCGTACTTCCAGTAGCCGTGCGTCGTTCAAGTCGTCCC
[24] = tested on: DNA aptamer or structured DNA GGGACGACAGGGCACGTCTCGGCATCGAGGGTTTCGCGGTCGTCCC
[25] = tested on: DNA aptamer or structured DNA GGGACGACCGTTGTTCGAGCCTTGAGTACCATTGGTAGGTCGTCCC
[26] = tested on: DNA aptamer or structured DNA GGGACGACGCGTACCTGTGGTAGTTGTACGTCGTTCAAGTCGTCCC
[27] = tested on: DNA aptamer or structured DNA GGGACGACCGCGTAGGGGAACACGCTTGCAGGGCTGAGGTCGTCCC
[28] = tested on: DNA aptamer or structured DNA CTTACGACATCTGCGTGTGGCCGGTGTGAGGGAGGGATGTCGTAAG
[29] = tested on: DNA aptamer or structured DNA GGGACGACTAGCGCATGCGTTGTTCGAGGATACGAGTAGTCGTCCC
[30] = tested on: DNA aptamer or structured DNA GGGACGACATGCGTCGAAAAGACCCCTGAGGGCAGCTGGTCGTCCC
[31] = tested on: DNA aptamer or structured DNA CTTACGACTAGGTGTGGGTCGGCGCTAGGGGCAGGGTAGTCGTAAG
[32] = tested on: DNA aptamer or structured DNA GGGACGACGGCACGAGGTAATTCGTTGGTTGCACTGCGCTGGGAGGCAGTCGTCCC
[33] = tested on: DNA aptamer or structured DNA CTTACGACGGTGGGGGGTTGGTAGGGGAGGAGCGCATCGTCGTAAG
Throughout, for binding call: call rule not given here.

With `COc1ccc2c3c1O[C@H]1C(=O)CC[C@@]4(O)[C@@H](C2)N(C)CC[C@]314` the Kd [1] was 3.19 µM, the binding call [2] was “no binding” and the binding call [3] was “no binding”. For the same molecule, the Kd [4] was 2.16 µM, the binding call [5] was “no binding” and the binding call [6] was “no binding”. The Kd [7] was 2.77 µM, the Kd [8] was 0.99 µM and the binding call [9] was “no binding”.
In the case of `CN(C)CCOC(c1ccccc1)c1ccccc1`, the binding call [10] is reported as “no binding”, the binding call [2] is reported as “no binding” and the binding call [11] is reported as “no binding”. For the same molecule, the binding call [12] was “no binding”, the binding call [13] was “no binding” and the binding call [14] was “no binding”. The binding call [4] was “no binding”, the binding call [15] was “no binding” and the binding call [16] was “binds”. The binding call [17] was “no binding” and the binding call [18] was “no binding”.
In the case of `C=CCN1CC[C@]23c4c5ccc(O)c4O[C@H]2C(=O)CC[C@@]3(O)[C@H]1C5`, the binding call [1] is reported as “no binding”, the binding call [10] is reported as “no binding” and the binding call [19] is reported as “no binding”. The binding call [13] was “no binding”, the binding call [20] was “no binding” and the binding call [21] was “no binding”. The binding call [22] was “no binding”, the binding call [23] was “no binding” and the binding call [24] was “no binding”. For the same molecule, the binding call [25] was “no binding”, the binding call [26] was “no binding” and the binding call [15] was “no binding”. For the same molecule, the binding call [7] was “no binding” and the binding call [27] was “no binding”.
With `CC(=O)Oc1ccc2c3c1O[C@H]1[C@@H](OC(C)=O)C=C[C@H]4[C@@H](C2)N(C)CC[C@@]341` the Kd [10] was 4.57 µM, the Kd [19] was 4.35 µM and the binding call [28] was “binds”. The Kd [11] was 3.11 µM, the binding call [12] was “no binding” and the Kd [29] was 2.67 µM. For the same molecule, the Kd [20] was 1.61 µM, the binding call [14] was “no binding” and the Kd [21] was 3.4 µM. The binding call [22] was “no binding”, the Kd [23] was 4.08 µM and the Kd [24] was 4.74 µM. The binding call [5] was “no binding”, the Kd [25] was 2.28 µM and the Kd [26] was 4.13 µM. The Kd [30] was 1.11 µM and the binding call [9] was “no binding”.
`O=C1CC[C@@]2(O)[C@H]3Cc4ccc(O)c5c4[C@@]2(CCN3CC2CC2)[C@H]1O5` was tested, and the binding call [19] was “no binding”, the binding call [11] was “no binding” and the binding call [29] was “no binding”. The binding call [13] was “no binding”, the binding call [22] was “no binding” and the binding call [23] was “no binding”. The binding call [26] was “no binding”, the binding call [15] was “no binding” and the binding call [30] was “no binding”. The binding call [27] was “no binding”.
With `CN1C(=O)CN=C(c2ccccc2)c2cc(Cl)ccc21` the binding call [20] was “no binding”, the binding call [4] was “no binding” and the binding call [31] was “no binding”. The binding call [30] was “no binding”, the binding call [7] was “no binding” and the binding call [8] was “no binding”. For the same molecule, the binding call [9] was “no binding”.
In the case of `C=C[C@H]1CN2CC[C@@H]1C[C@H]2[C@H](O)c1ccnc2ccc(OC)cc12`, the binding call [1] is reported as “binds”, the binding call [32] is reported as “no binding” and the binding call [12] is reported as “no binding”. For the same molecule, the binding call [29] was “no binding”, the binding call [13] was “no binding” and the binding call [14] was “no binding”. The binding call [22] was “no binding”, the binding call [23] was “no binding” and the binding call [24] was “no binding”. For the same molecule, the binding call [6] was “no binding”, the binding call [9] was “no binding” and the binding call [16] was “binds”. The binding call [27] was “no binding”, the binding call [17] was “no binding” and the binding call [18] was “no binding”.
In the case of `Cn1c(=O)c2c(ncn2C)n(C)c1=O`, the binding call [28] is reported as “no binding”, the binding call [33] is reported as “no binding” and the binding call [20] is reported as “no binding”. For the same molecule, the binding call [4] was “no binding”, the binding call [21] was “no binding” and the binding call [25] was “no binding”.
